Starred links: 1 amine or outer side, 2 acyl side, 3 side chain; linkers in the order of their positions; H or OH if unused. Positions of bridges follow the written chain, without caps; N, C: chain ends. Non-standard residues stand in square brackets, D forms with d. Chains are numbered I, II in the order given. X3 = O=C(CCOCCN(CCOCCC(=O)NCCOCCOCCOCCOCCOCCOCCOCCOCCOCCOCCn1nnc2c1CCC1C(CC2)C1COC(=O)[*:2])CCOCCC(=O)NCCOCCOCCOCCOCCOCCOCCOCCOCCOCCOCCn1nnc2c1CCC1C(CC2)C1COC(=O)[*:3])NCCOCCOCCOCCOCCOCCOCCOCCOCCOCCOCCn1nnc2c1CCC1C(CC2)C1COC(=O)[*:1]; TATA = O=C(CC[*:1])N1CN(C(=O)CC[*:2])CN(C(=O)CC[*:3])C1; Nle = CCCC[C@H](N)C(=O)O
Target: CD137 (Homo sapiens, UniProt Q07011)
Experiment: CD137 Promega reporter cell activity assay (NF-κB luciferase in Jurkat cells)
Conditions: for Average Fold EC50 Improvement relative to CD137L: Average EC50 for CD137L = 14.2 nM; for Average Relative Fold Induction relative to CD137L: Average fold induction for CD137L = 4.0
Experimental: CD137 binding multimers were evaluated for CD137 using a Reporter cell activity assay that uses NF-κB luciferase luminescence as a read-out of CD137 activation in Jurkat cells. […] Samples were diluted at concentration expected to give the maximum fold induction and then titrated down in 1/3 dilution series or 1/10 dilution series in a sterile 96 well-plate. […] 50 μl cells were added per well to white cell culture plates.
Cells were co-incubated together with agonists for 6 h at 37° C., 5% CO2. After 6 h Bio-Glo™ was thawed and the assay developed at room-temperature. 75 ul Bio-Glo™ was added per well and incubated for 5-10 min. Luciferase signal was read on a Pherastar plate-reader using MARS program. Data was analysed by transforming the data to x=log (X), then plotting log (agonist) vs. response variable slope (4 parameters) to calculate EC50 values.

Chain of CD137 (Q07011 24-255): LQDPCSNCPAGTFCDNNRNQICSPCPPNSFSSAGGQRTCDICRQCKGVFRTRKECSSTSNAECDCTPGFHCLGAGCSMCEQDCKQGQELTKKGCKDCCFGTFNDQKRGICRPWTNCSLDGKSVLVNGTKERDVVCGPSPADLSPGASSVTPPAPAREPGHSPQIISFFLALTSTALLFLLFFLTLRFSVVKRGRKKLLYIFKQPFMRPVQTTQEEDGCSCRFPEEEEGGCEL

CCCC[C@@H]1NC(=O)[C@H](Cc2ccc(O)cc2)NC(=O)[C@@H]2CCCN2C(=O)[C@H](CC(=O)O)NC(=O)[C@H](C)NC(=O)[C@H](CCCCNC(=O)OCC2C3CCc4nnn(CCOCCOCCOCCOCCOCCOCCOCCOCCOCCOCCNC(=O)CCOCC(COCCC(=O)NCCOCCOCCOCCOCCOCCOCCOCCOCCOCCOCCn5nnc6c5CCC5C(CC6)C5COC(=O)NCCCC[C@@H]5NC(=O)[C@@H]6CSCCC(=O)N7CN(CN(C7)C(=O)CCSC[C@@H](C(=O)N[C@@H](C)C(N)=O)NC(=O)[C@H](CCCC)NC(=O)[C@H](Cc7ccc(O)cc7)NC(=O)[C@@H]7CCCN7C(=O)[C@H](CC(=O)O)NC(=O)[C@H](C)NC5=O)C(=O)CCSC[C@H](NC(=O)[C@H](C)NC(C)=O)C(=O)N[C@@H]([C@@H](C)CC)C(=O)N[C@@H](CCC(=O)O)C(=O)N[C@@H](CCC(=O)O)C(=O)NCC(=O)N[C@@H](CCC(N)=O)C(=O)N[C@@H](Cc5ccc(O)cc5)C(=O)N6)(COCCC(=O)NCCOCCOCCOCCOCCOCCOCCOCCOCCOCCOCCn5nnc6c5CCC5C(CC6)C5COC(=O)NCCCC[C@@H]5NC(=O)[C@@H]6CSCCC(=O)N7CN(CN(C7)C(=O)CCSC[C@@H](C(=O)N[C@@H](C)C(N)=O)NC(=O)[C@H](CCCC)NC(=O)[C@H](Cc7ccc(O)cc7)NC(=O)[C@@H]7CCCN7C(=O)[C@H](CC(=O)O)NC(=O)[C@H](C)NC5=O)C(=O)CCSC[C@H](NC(=O)[C@H](C)NC(C)=O)C(=O)N[C@@H]([C@@H](C)CC)C(=O)N[C@@H](CCC(=O)O)C(=O)N[C@@H](CCC(=O)O)C(=O)NCC(=O)N[C@@H](CCC(N)=O)C(=O)N[C@@H](Cc5ccc(O)cc5)C(=O)N6)COCCC(=O)NCCOCCOCCOCCOCCOCCOCCOCCOCCOCCOCCn5nnc6c5CCC5C(CC6)C5COC(=O)NCCCC[C@@H]5NC(=O)[C@@H]6CSCCC(=O)N7CN(CN(C7)C(=O)CCSC[C@@H](C(=O)N[C@@H](C)C(N)=O)NC(=O)[C@H](CCCC)NC(=O)[C@H](Cc7ccc(O)cc7)NC(=O)[C@@H]7CCCN7C(=O)[C@H](CC(=O)O)NC(=O)[C@H](C)NC5=O)C(=O)CCSC[C@H](NC(=O)[C@H](C)NC(C)=O)C(=O)N[C@@H]([C@@H](C)CC)C(=O)N[C@@H](CCC(=O)O)C(=O)N[C@@H](CCC(=O)O)C(=O)NCC(=O)N[C@@H](CCC(N)=O)C(=O)N[C@@H](Cc5ccc(O)cc5)C(=O)N6)c4CCC32)NC(=O)[C@@H]2CSCCC(=O)N3CN(CN(C3)C(=O)CCSC[C@@H](C(=O)N[C@@H](C)C(N)=O)NC1=O)C(=O)CCSC[C@H](NC(=O)[C@H](C)NC(C)=O)C(=O)N[C@@H]([C@@H](C)CC)C(=O)N[C@@H](CCC(=O)O)C(=O)N[C@@H](CCC(=O)O)C(=O)NCC(=O)N[C@@H](CCC(N)=O)C(=O)N[C@@H](Cc1ccc(O)cc1)C(=O)N2 (some centres unmarked) [BCY8147]
Average Fold EC50 Improvement relative to CD137L: 50.58
Average Relative Fold Induction relative to CD137L: 1.04

ACIEEGQYCFADPYMCA [BCY592, reference compound]
CD137 agonism / activation in reporter cells (in words) (FIGS. 1 to 3 and 15): no detectable activity

CCCC[C@@H]1NC(=O)[C@H](Cc2ccc(O)cc2)NC(=O)[C@@H]2CCCN2C(=O)[C@H](CC(=O)O)NC(=O)[C@H](C)NC(=O)[C@H](Cc2ccccc2)NC(=O)[C@@H]2CSCCC(=O)N3CN(CN(C3)C(=O)CCSC[C@@H](C(=O)N[C@@H](C)C(N)=O)NC1=O)C(=O)CCSC[C@H](NC(=O)[C@H](C)NC(C)=O)C(=O)N[C@@H]([C@@H](C)CC)C(=O)N[C@@H](CCC(=O)O)C(=O)N[C@@H](CCC(=O)O)C(=O)N[C@H](CCCCNC(=O)OCC1C3CCc4nnn(CCOCCOCCOCCOCCOCCOCCOCCOCCOCCOCCNC(=O)CCOCCN(CCOCCC(=O)NCCOCCOCCOCCOCCOCCOCCOCCOCCOCCOCCn5nnc6c5CCC5C(CC6)C5COC(=O)NCCCC[C@H]5NC(=O)[C@H](CCC(=O)O)NC(=O)[C@H](CCC(=O)O)NC(=O)[C@H]([C@@H](C)CC)NC(=O)[C@@H](NC(=O)[C@H](C)NC(C)=O)CSCCC(=O)N6CN7CN(C6)C(=O)CCSC[C@H](NC(=O)[C@H](Cc6ccc(O)cc6)NC(=O)[C@H](CCC(N)=O)NC5=O)C(=O)N[C@@H](Cc5ccccc5)C(=O)N[C@@H](C)C(=O)N[C@@H](CC(=O)O)C(=O)N5CCC[C@H]5C(=O)N[C@@H](Cc5ccc(O)cc5)C(=O)N[C@@H](CCCC)C(=O)N[C@H](C(=O)N[C@@H](C)C(N)=O)CSCCC7=O)CCOCCC(=O)NCCOCCOCCOCCOCCOCCOCCOCCOCCOCCOCCn5nnc6c5CCC5C(CC6)C5COC(=O)NCCCC[C@H]5NC(=O)[C@H](CCC(=O)O)NC(=O)[C@H](CCC(=O)O)NC(=O)[C@H]([C@@H](C)CC)NC(=O)[C@@H](NC(=O)[C@H](C)NC(C)=O)CSCCC(=O)N6CN7CN(C6)C(=O)CCSC[C@H](NC(=O)[C@H](Cc6ccc(O)cc6)NC(=O)[C@H](CCC(N)=O)NC5=O)C(=O)N[C@@H](Cc5ccccc5)C(=O)N[C@@H](C)C(=O)N[C@@H](CC(=O)O)C(=O)N5CCC[C@H]5C(=O)N[C@@H](Cc5ccc(O)cc5)C(=O)N[C@@H](CCCC)C(=O)N[C@H](C(=O)N[C@@H](C)C(N)=O)CSCCC7=O)c4CCC31)C(=O)N[C@@H](CCC(N)=O)C(=O)N[C@@H](Cc1ccc(O)cc1)C(=O)N2 (some centres unmarked) [BCY8102]
Average Fold EC50 Improvement relative to CD137L: 41.27
Average Relative Fold Induction relative to CD137L: 0.91

CCCC[C@@H]1NC(=O)[C@H](Cc2ccc(O)cc2)NC(=O)[C@@H]2CCCN2C(=O)[C@H](CC(=O)O)NC(=O)[C@H](C)NC(=O)[C@H](Cc2ccccc2)NC(=O)[C@@H]2CSCCC(=O)N3CN(CN(C3)C(=O)CCSC[C@@H](C(=O)N[C@@H](C)C(N)=O)NC1=O)C(=O)CCSC[C@H](NC(=O)[C@H](C)NC(C)=O)C(=O)N[C@@H]([C@@H](C)CC)C(=O)N[C@@H](CCC(=O)O)C(=O)N[C@@H](CCCCNC(=O)OCC1C3CCc4nnn(CCOCCOCCOCCOCCOCCOCCOCCOCCOCCOCCNC(=O)CCOCC(COCCC(=O)NCCOCCOCCOCCOCCOCCOCCOCCOCCOCCOCCn5nnc6c5CCC5C(CC6)C5COC(=O)NCCCC[C@@H]5NC(=O)[C@H](CCC(=O)O)NC(=O)[C@H]([C@@H](C)CC)NC(=O)[C@@H](NC(=O)[C@H](C)NC(C)=O)CSCCC(=O)N6CN7CN(C6)C(=O)CCSC[C@H](NC(=O)[C@H](Cc6ccc(O)cc6)NC(=O)[C@H](CCC(N)=O)NC(=O)CNC5=O)C(=O)N[C@@H](Cc5ccccc5)C(=O)N[C@@H](C)C(=O)N[C@@H](CC(=O)O)C(=O)N5CCC[C@H]5C(=O)N[C@@H](Cc5ccc(O)cc5)C(=O)N[C@@H](CCCC)C(=O)N[C@H](C(=O)N[C@@H](C)C(N)=O)CSCCC7=O)(COCCC(=O)NCCOCCOCCOCCOCCOCCOCCOCCOCCOCCOCCn5nnc6c5CCC5C(CC6)C5COC(=O)NCCCC[C@@H]5NC(=O)[C@H](CCC(=O)O)NC(=O)[C@H]([C@@H](C)CC)NC(=O)[C@@H](NC(=O)[C@H](C)NC(C)=O)CSCCC(=O)N6CN7CN(C6)C(=O)CCSC[C@H](NC(=O)[C@H](Cc6ccc(O)cc6)NC(=O)[C@H](CCC(N)=O)NC(=O)CNC5=O)C(=O)N[C@@H](Cc5ccccc5)C(=O)N[C@@H](C)C(=O)N[C@@H](CC(=O)O)C(=O)N5CCC[C@H]5C(=O)N[C@@H](Cc5ccc(O)cc5)C(=O)N[C@@H](CCCC)C(=O)N[C@H](C(=O)N[C@@H](C)C(N)=O)CSCCC7=O)COCCC(=O)NCCOCCOCCOCCOCCOCCOCCOCCOCCOCCOCCn5nnc6c5CCC5C(CC6)C5COC(=O)NCCCC[C@@H]5NC(=O)[C@H](CCC(=O)O)NC(=O)[C@H]([C@@H](C)CC)NC(=O)[C@@H](NC(=O)[C@H](C)NC(C)=O)CSCCC(=O)N6CN7CN(C6)C(=O)CCSC[C@H](NC(=O)[C@H](Cc6ccc(O)cc6)NC(=O)[C@H](CCC(N)=O)NC(=O)CNC5=O)C(=O)N[C@@H](Cc5ccccc5)C(=O)N[C@@H](C)C(=O)N[C@@H](CC(=O)O)C(=O)N5CCC[C@H]5C(=O)N[C@@H](Cc5ccc(O)cc5)C(=O)N[C@@H](CCCC)C(=O)N[C@H](C(=O)N[C@@H](C)C(N)=O)CSCCC7=O)c4CCC31)C(=O)NCC(=O)N[C@@H](CCC(N)=O)C(=O)N[C@@H](Cc1ccc(O)cc1)C(=O)N2 (some centres unmarked) [BCY8150]
Average Fold EC50 Improvement relative to CD137L: 4.14
Average Relative Fold Induction relative to CD137L: 0.77

CC[C@H](C)[C@@H]1NC(=O)[C@@H](NC(=O)[C@H](C)NC(C)=O)CSCCC(=O)N2CN3CN(C2)C(=O)CCSC[C@H](NC(=O)[C@H](Cc2ccc(O)cc2)NC(=O)[C@H](CCC(N)=O)NC(=O)CNC(=O)[C@H](CCC(=O)O)NC(=O)[C@H](CCC(=O)O)NC1=O)C(=O)N[C@@H](Cc1ccccc1)C(=O)N[C@@H](C)C(=O)N[C@@H](CC(=O)O)C(=O)N1CCC[C@H]1C(=O)N[C@@H](Cc1ccc(O)cc1)C(=O)N[C@@H](CCCCNC(=O)OCC1C2CCc4nnn(CCOCCOCCOCCOCCOCCOCCOCCOCCOCCOCCOCCOCCOCCOCCOCCOCCOCCOCCOCCOCCOCCOCCOCCNC(=O)CCOCCN(CCOCCC(=O)NCCOCCOCCOCCOCCOCCOCCOCCOCCOCCOCCOCCOCCOCCOCCOCCOCCOCCOCCOCCOCCOCCOCCOCCn5nnc6c5CCC5C(CC6)C5COC(=O)NCCCC[C@@H]5NC(=O)[C@H](Cc6ccc(O)cc6)NC(=O)[C@@H]6CCCN6C(=O)[C@H](CC(=O)O)NC(=O)[C@H](C)NC(=O)[C@H](Cc6ccccc6)NC(=O)[C@@H]6CSCCC(=O)N7CN(CN(C7)C(=O)CCSC[C@@H](C(=O)N[C@@H](C)C(N)=O)NC5=O)C(=O)CCSC[C@H](NC(=O)[C@H](C)NC(C)=O)C(=O)N[C@@H]([C@@H](C)CC)C(=O)N[C@@H](CCC(=O)O)C(=O)N[C@@H](CCC(=O)O)C(=O)NCC(=O)N[C@@H](CCC(N)=O)C(=O)N[C@@H](Cc5ccc(O)cc5)C(=O)N6)CCOCCC(=O)NCCOCCOCCOCCOCCOCCOCCOCCOCCOCCOCCOCCOCCOCCOCCOCCOCCOCCOCCOCCOCCOCCOCCOCCn5nnc6c5CCC5C(CC6)C5COC(=O)NCCCC[C@@H]5NC(=O)[C@H](Cc6ccc(O)cc6)NC(=O)[C@@H]6CCCN6C(=O)[C@H](CC(=O)O)NC(=O)[C@H](C)NC(=O)[C@H](Cc6ccccc6)NC(=O)[C@@H]6CSCCC(=O)N7CN(CN(C7)C(=O)CCSC[C@@H](C(=O)N[C@@H](C)C(N)=O)NC5=O)C(=O)CCSC[C@H](NC(=O)[C@H](C)NC(C)=O)C(=O)N[C@@H]([C@@H](C)CC)C(=O)N[C@@H](CCC(=O)O)C(=O)N[C@@H](CCC(=O)O)C(=O)NCC(=O)N[C@@H](CCC(N)=O)C(=O)N[C@@H](Cc5ccc(O)cc5)C(=O)N6)c4CCC21)C(=O)N[C@H](C(=O)N[C@@H](C)C(N)=O)CSCCC3=O (some centres unmarked) [BCY8107]
Average Fold EC50 Improvement relative to CD137L: 64.33
Average Relative Fold Induction relative to CD137L: 0.64

I: Ac-ACIEEGQYCKADPY[Nle]CA-NH2 / II: Ac-ACIEEGQYCKADPY[Nle]CA-NH2 / III: Ac-ACIEEGQYCKADPY[Nle]CA-NH2 (linker I:2-I:9-I:16, II:2-II:9-II:16, III:2-III:9-III:16 via TATA; linker I:10-II:10-III:10 via X3) [BCY8145]
Average Fold EC50 Improvement relative to CD137L: 5.93
Average Relative Fold Induction relative to CD137L: 0.95

Source: patent publication US11542304B2, “Multimeric bicyclic peptide ligands” (BicycleTx Limited, priority 2018, dated 2023)
